This is an account of results in PubChem BioAssay (NCI).

Common to all, as to test: NCI anticancer screen, dose series, 48 h
Experiment [1] has as its system MCF7 breast.
Experiment [2] relates to BT-549 breast.
Experiment [3] has as its system T-47D breast.
The test system of experiment [4] is RPMI-8226 leukemia.
In experiment [5] the test system is HOP-62 NSCLC.
Experiment [6] relates to MDA-MB-435.
For experiment [7], the system named is PC-3 prostate.
The test system of experiment [8] is ACHN renal.
The test system of experiment [9] is OVCAR-4 ovarian.
The subject of experiment [10] is NCI/ADR-RES ovarian.

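Following 48 hours of exposure in 96-well plates, responses at five concentrations were used to interpolate endpoints linearly. GI50 = concentration required for 50% inhibition of growth. TGI: total growth inhibition.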

In the case of `CCN(CC)CCNc1ccc([N+](=O)[O-])c2sc3cc(Cl)ccc3c(=O)c12`, the GI50 in experiment [1] was 3280 nM; in experiment [2], 17.7 µM; in experiment [3] it was 29800 nM; in [4], 2320 nM; in [5], 2700 nM; in experiment [6], 2830 nM. The GI50 in [7] was 2650 nM. Besides, the TGI in experiment [1] is > 100 µM; in experiment [2] it was > 100 µM; in [3], > 100 µM; in experiment [4], 6.55 µM; in [5], > 100 µM; in [6] it was > 100 µM. In addition, the TGI in experiment [7] is > 100 µM.

As to `COc1cc2c(cc1OCCCOc1ccc(-c3cc4ccccc4c4ccccc34)cc1)N=C[C@@H]1CCCN1C2=O`, the GI50 was 172 nM in experiment [1]; 0.278 µM in experiment [2]; 88.7 nM in [3]; 1070 nM in [8]; 815 nM in experiment [9]; 343 nM in experiment [6]. In addition, the GI50 in experiment [10] was 716 nM. The TGI was 0.971 µM in experiment [1]; 2.05 µM in [2]; 0.598 µM in experiment [3]; 2.3 µM in experiment [8]; 2.21 µM in [9]; 1.31 µM in experiment [6]. Further, in [10], the TGI was found to be 1.98 µM.

On to `Cc1cc(Nc2ccc(Cl)cc2)nc(NCCCNc2ccnc3cc(Cl)ccc23)n1`, for which the GI50 in experiment [3] is 1830 nM; in experiment [5], 1530 nM; in [8] it was 1630 nM; in experiment [7] it was 1650 nM. The TGI in [3] came out at 3.81 µM; in experiment [5], 3.07 µM; in [8] it was 3.06 µM; in [7], 3.18 µM.

For the compound `COC(=O)C(NC(=O)c1ccccc1)C(c1c(O)cc(O)cc1O)P(=O)(OC)OC` (stereo not given), the TGI in experiment [4], in experiment [5], in experiment [8] and in experiment [9] was > 100 µM throughout.

Consider `CCOC(=O)c1csc(NC(=O)C(C)N2CCOCC2)n1` (stereo not given), for which the TGI in experiment [1], in [3], in experiment [4], in experiment [5], in [8] and in [9] was > 100 µM throughout. For the same compound, the TGI in experiment [6], in experiment [10] and in [7] was > 100 µM throughout.

With `NC(Cc1ccccc1CP(=O)(O)O)C(=O)O` (stereo not given), the TGI in experiment [1], in [2], in experiment [3], in experiment [4], in experiment [8] and in [9] was > 100 µM in each case. The TGI in experiment [6], in experiment [10] and in experiment [7] was > 100 µM in each case.

Turning to `c1cncc([O][Ge]([O]c2cccnc2)([O]c2cccnc2)[O]c2cccnc2)c1`, in experiment [9], the GI50 was > 100000 nM and the TGI is > 100 µM.
